Patent US20050176775A1, “Substituted pyridinones” (priority 2003, published 2005)

Assays:
human p38 kinase alpha = biological target: T1, human p38 kinase alpha (Homo sapiens, UniProt Q16539); test: p38 alpha kinase assay (PHAS-I / 32P-ATP format or EGFRP / 33P-ATP format); type: biochemical; settings: inhibition of activated human p38 kinase alpha; the text does not say which of the two in vitro formats was used
T1 construct: made in house; host or cells: E. coli DH10B
Experimental: The ability of compounds to inhibit human p38 kinase alpha was evaluated using two in vitro assay methods. In the first method, activated human p38 kinase alpha phosphorylates a biotinylated substrate, PHAS-I (phosphorylated heat and acid stable protein-insulin inducible), in the presence of gamma ^32P-ATP (^32P-ATP). PHAS-I was biotinylated prior to the assay and provides a means of capturing the substrate, which is phosphorylated during the assay. p38 Kinase was activated by MKK6. Compounds were tested in 10 fold serial dilutions over the range of 100 μM to 0.001 μM using 1% DMSO. Each concentration of inhibitor was tested in triplicate.
All reactions were carried out in 96 well polypropylene plates. Each reaction well contained 25 mM HEPES pH 7.5, 10 mM magnesium acetate and 50 μM unlabeled ATP. […] Activated human p38 kinase alpha was used at 1 μg per 50 μl reaction volume representing a final concentration of 0.3 μM. […]
Following incubation, 20 μl of reaction mixture was transferred to a high capacity streptavidin coated filter plate (SAM-streptavidin-matrix, Promega) prewetted with phosphate buffered saline. […] The plates were sealed and counted.
Compounds were tested in 10 fold serial dilutions over the range of 100 μM to 0.001 μM in 1% DMSO. […] 150 μl of Microscint 40 was then added to each well of the Microlite plate, and the plate was sealed, mixed, and counted.

T1 sequence (Q16539 whole entry): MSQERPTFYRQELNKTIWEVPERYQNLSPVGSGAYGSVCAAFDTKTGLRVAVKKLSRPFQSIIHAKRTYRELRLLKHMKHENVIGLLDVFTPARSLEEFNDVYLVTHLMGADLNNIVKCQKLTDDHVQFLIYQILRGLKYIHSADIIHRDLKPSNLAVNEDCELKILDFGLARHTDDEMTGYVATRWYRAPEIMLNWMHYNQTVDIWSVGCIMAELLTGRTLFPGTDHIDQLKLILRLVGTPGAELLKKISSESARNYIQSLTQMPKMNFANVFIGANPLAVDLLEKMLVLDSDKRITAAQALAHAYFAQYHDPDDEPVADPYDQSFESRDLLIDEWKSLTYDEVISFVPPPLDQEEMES

SMILES | melting point [°C] | IC50 (human p38 kinase alpha) [µM]
Cl.O=c1c(Br)c(OCc2ccccc2)ccn1CC1CCCNC1 (centres unmarked) | 138.1 to 139.2 | –
Cc1ccc(COc2ccn(Cc3ccccc3)c(=O)c2Br)cc1 [Example 44, 1-benzyl-3-bromo-4-[(4-methylbenzyl)oxy]pyridin-2(1H)-one] | 149 to 149.7 | –
COC(=O)c1ccc(Cn2ccc(OCc3ccc(F)cc3F)c(Br)c2=O)cc1 [Example 101, Methyl 4-[3-Bromo-4-(2,4-difluorobenzyloxy)-2-oxo-2H-pyridin-1-ylmethyl]-benzoate] | 136 to 139 | –
O=c1c(Br)c(OCc2ccc(F)cc2)ccn1CC1CC1 [Example 59, 3-bromo-1-cyclopropylmethyl-4-(4-fluorobenzyloxy)-1H-pyridin-2-one] | 139 to 141 | –
NCc1cccc(Cn2ccc(OCc3ccc(F)cc3)c(Br)c2=O)c1.O=C(O)C(F)(F)F | 127 to 139 | –
CC(C)(C)OC(=O)NCc1cccc(Cn2ccc(OCc3ccc(F)cc3)c(Br)c2=O)c1 [Example 70, {3-[3-bromo-4-(4-fluorobenzyloxy)-2-oxo-2H-pyridin-1-ylmethyl]benzyl}carbamic Acid Tert-Butyl Ester] | 136 to 138 | –
Br.Cn1ccc(OCc2ccccc2)c(Br)c1=O [Example 22, 4-(benzyloxy)-3-bromo-1-methylpyridin-2(1H)-one Hydrobromide] | 105.3 to 105.6 | –
CS(=O)(=O)c1ccc(Cn2ccc(OCc3ccc(F)cc3F)c(Cl)c2=O)cc1 [Example 82, 3-chloro-4-(2,4-difluorobenzyloxy)-1-[(4-methanesulfonyl)benzyl]-1H-pyridin-2-one] | 223 to 225 | –
N#CCc1cccc(Cn2ccc(OCc3ccc(F)cc3F)c(Br)c2=O)c1 [Example 97, {3-[3-bromo-4-(2,4-difluorobenzyloxy)-2-oxo-2H-pyridin-1-ylmethyl]-phenyl}acetonitrile] | 120 to 121 | –
O=c1c(Br)c(SCc2ccccc2)ccn1Cc1ccccc1 [Example 46, 1-benzyl-4-[benzylthio]-3-bromopyridin-2(1H)-one] | 180.6 to 182.1 | –
O=c1c(Br)c(OCc2ccccc2Cl)ccn1Cc1ccccc1 [Example 43, 1-benzyl-3-bromo-4-[(2-chlorobenzyl)oxy]pyridin-2(1H)-one] | 143.3 to 145.5 | –
COC(=O)c1ccccc1Cn1ccc(OCc2ccc(F)cc2)c(Br)c1=O [Example 72, methyl 2-[3-Bromo-4-(4-fluorobenzyloxy)-2-oxo-2H-pyridin-1-ylmethyl]benzoate] | 161 to 165 | –
COC(=O)c1cccc(Cn2ccc(OCc3ccc(F)cc3F)c(Br)c2=O)c1 [Example 100, Methyl 3-[3-Bromo-4-(2,4-difluorobenzyloxy)-2-oxo-2H-pyridin-1-ylmethyl]benzoate] | 115 to 117 | –

The next lines start with the values.

melting point [°C] | IC50 (human p38 kinase alpha) [µM] | SMILES
127 to 129 | – | Cc1c(OCc2ccc(F)cc2F)ccn(Cc2cccc(F)c2)c1=O [Example 129, 4-(2,4-Difluorobenzyloxy)-1-(3-fluorobenzyl)-3-methyl-1H-pyridin-2-one]
– | 25 to 100 | Cc1c(/C=N/O)c(OCc2ccc(F)cc2F)c(Br)c(=O)n1-c1c(F)cccc1F [Example 565, 5-bromo-4-[(2,4-difluorobenzyl)oxy]-1-(2,6-difluorophenyl)-2-methyl-6-oxo-1,6-dihydropyridine-3-carbaldehyde Oxime]
171 to 174 | – | COC(=O)c1cccc(Cn2ccc(OCc3ccc(F)cc3F)c(Cl)c2=O)c1F [Example 105, Methyl 3-[3-chloro-4-(2,4-difluorobenzyloxy)-2-oxo-2H-pyridin-1-ylmethyl]-2-fluoro-benzoate]
118 to 120 | – | Cc1c(OCc2ccc(F)cc2F)cc(C)n(C2CCCCC2)c1=O [Example 132, 1-cyclohexyl-4-(2,4-difluorobenzyloxy)-3,6-dimethyl-1H-pyridin-2-one]
172 to 174 | – | O=c1c(Br)c(OCc2ccc(F)c(F)c2)ccn1Cc1cccc(F)c1 [Example 112, 3-bromo-4-(3,4-difluorobenzyloxy)-1-(3-fluorobenzyl)-1H-pyridin-2-one]
– | < 1 | Cc1ccc(C(N)=O)cc1-n1c(C)cc(OCc2ccc(F)cc2F)c(Br)c1=O (single isomer, unassigned) [Example 736, (+)-3-[3-bromo-4-[(2,4-difluorobenzyl)oxy]-6-methyl-2-oxopyridin-1(2H)-yl]-4-methylbenzamide]
95 to 98 | – | CCOC(=O)Cc1cccc(Cn2ccc(OCc3ccc(F)cc3F)c(Br)c2=O)c1 [Example 127, Ethyl {3-[3-Bromo-4-(2,4-difluorobenzyloxy)-2-oxo-2H-pyridin-1-ylmethyl]-phenyl}acetate]
